From paper PMC8850458, “The AUTOTAC chemical biology platform for targeted protein degradation via the autophagy-lysosome system” (Nature Communications, 2022)
Where “and” joins values, the source holds several entries; their conditions need not be identical. Equal entries are not always repeated.

What was measured:
[1] = molecular target: T1, mutant desminL385P (Homo sapiens, UniProt P17661, L385P); assay: WB degradation of mutant desmin in HeLa cells; assay type: cell-based; details: exogenously expressed
T1 construct: expressed in transfected cells; host or cells: HeLa, transient
T1 sequence (P17661 whole entry L385P): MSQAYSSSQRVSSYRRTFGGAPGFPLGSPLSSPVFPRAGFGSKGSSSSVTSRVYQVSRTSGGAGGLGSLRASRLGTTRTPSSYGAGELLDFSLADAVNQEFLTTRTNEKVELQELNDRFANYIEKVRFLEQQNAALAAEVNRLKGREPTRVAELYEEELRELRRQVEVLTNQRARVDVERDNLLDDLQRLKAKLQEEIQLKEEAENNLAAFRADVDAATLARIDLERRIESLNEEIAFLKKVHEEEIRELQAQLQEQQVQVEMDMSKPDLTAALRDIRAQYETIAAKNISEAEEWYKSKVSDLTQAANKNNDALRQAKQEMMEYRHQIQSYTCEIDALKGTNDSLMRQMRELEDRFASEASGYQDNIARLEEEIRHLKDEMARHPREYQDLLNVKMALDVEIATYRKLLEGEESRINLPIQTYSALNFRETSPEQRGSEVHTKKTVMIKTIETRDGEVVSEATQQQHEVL
Protocol: (§1) Adherent cells were washed with phosphate-buffered saline (PBS) and cell pellets were lysed in SDS-based sample buffer (277.8 mM Tris-HCI, pH 6.8, 4.4% LDS, 44.4% (v/v) glycerol) containing beta-mercaptoethanol. Alternatively, cell pellets or protein supernatants were lysed in 5X Laemmli sample buffer. Whole-cell lysates were separated using SDS-PAGE, and transferred onto polyvinyllidene difluoride membranes at 100 V for 2 h at 4 °C. The membrane was incubated with a blocking solution consisting 4% skim milk in PBS solution for 30 min at room temperature and incubated with primary antibodies overnight, followed by incubation with host-specific HRP-conjugated secondary antibodies (1:10000 dilution). For signal detection, the membrane was developed with a mixture of ECL solution (Thermo Fisher Scientific) using X-ray films. Densitometry of developed bands was measured and analyzed with ImageJ (NIH, Bethesda).
(§2) Supplementary Fig. 5. AUTOTACs selectively target pathological aggregation-prone proteins for autophagic degradation. (a) WB in HEK293T cells treated with PBA-1105 (1 μM) and MG132 (1 μM, 24 h) at the indicated time points. (b) ICC of HeLa cells treated with the indicated compounds (1 μM, 24 h). Scale bar, 10 μm. (c) WB in HEK293T cells treated with PBA-1105 (500 nM, 24 h) and MG132 (1 μM, 24 h) under siRNA-mediated knockdown of p62 or ATG7 (20 nM, 48 h). (d) ICC in HeLa cells transiently expressing WIPI2-GFP and treated with Anle138b-F105 (1 μM, 24 h). Scale bar, 10 μm. (e) ICC in HeLa cells treated with […]
(§3) nM, 24 h). (g, h) WB in HeLa cells transiently expressing wild type or mutant (L385P) desmin-flag with LacZ-myc and treated with PBA-1105, PBA-1105b or Anle138b-F105 at the […]

[2] = molecular target: T2, wild-type desmin (Homo sapiens, UniProt P17661); assay: WB degradation of wild-type desmin in HeLa cells; assay type: cell-based; details: exogenously expressed
T2 construct: expressed in transfected cells; host or cells: HeLa, transient
T2 sequence (P17661 whole entry): as the sequence (P17661 whole entry L385P) above, with P385L counted along it
Protocol: as §1, §2, §3

[3] = molecular target: tauP301L (Homo sapiens, UniProt P10636, P618L); assay: WB degradation of tauP301L in SH-SY5Y-tauP301L cells; assay type: cell-based; details: SH-SY5Y-tauP301L cells
tauP301L, sequence (P10636 1-441 isoform P10636-8 P301L): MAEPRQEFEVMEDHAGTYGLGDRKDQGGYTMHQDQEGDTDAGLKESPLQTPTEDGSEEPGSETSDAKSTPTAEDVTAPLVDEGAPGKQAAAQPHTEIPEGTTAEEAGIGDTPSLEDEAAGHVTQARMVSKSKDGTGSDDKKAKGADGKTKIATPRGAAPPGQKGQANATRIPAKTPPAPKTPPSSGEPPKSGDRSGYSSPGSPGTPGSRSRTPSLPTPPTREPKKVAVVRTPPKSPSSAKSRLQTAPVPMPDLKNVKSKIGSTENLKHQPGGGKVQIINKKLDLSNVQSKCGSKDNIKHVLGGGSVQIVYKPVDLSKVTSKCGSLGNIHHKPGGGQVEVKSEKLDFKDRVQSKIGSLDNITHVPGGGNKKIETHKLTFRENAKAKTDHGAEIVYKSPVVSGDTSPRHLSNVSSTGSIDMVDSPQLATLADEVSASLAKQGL
Summary of the method: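 Lysates in SDS/LDS or Laemmli sample buffer were separated by SDS-PAGE and blotted to PVDF. Target protein was detected with primary antibodies, HRP secondary and ECL on X-ray film, and degradation quantified by band densitometry.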

[4] = system: p62-positive and WIPI2-positive punctate structures; assay: ICC of WIPI2-p62 co-localization in HeLa cells; assay type: cell-based; details: for WIPI2-p62 colocalization, AVG of cells of 50 / WIPI2-p62 colocalization, percentage AVG / WIPI2-p62 colocalization, cells of 50 cells counted: HeLa, endogenous WIPI2, 2.5 μM, 24 h
Protocol: (§4) Cells were cultured on coverslips coated with poly-L-lysine (Sigma) to observe cellular localization of proteins. Using 4% paraformaldehyde in PBS (pH 7.4), the cells were fixed for 15 min at room temperature and washed three times for 5 min with PBS. After fixing, the cells were permeabilized with 0.5% Triton X-100 in PBS solution for 15 min and washed three times with PBS for 5 min. The cells were blocked containing 2% BSA in PBS solution for 1 h at room temperature. Subsequently, the cells were incubated with primary antibody diluted in 2% BSA/PBS solution overnight at 4 °C, followed by washing the cells three times for 10 min with PBS and incubated with Alexa Fluor-conjugated secondary antibody diluted in 2% BSA/PBS for 30 min at room temperature. Using a DAPI-containing mounting medium (Vector Laboratories), the coverslips were mounted on glass slides. Confocal images were taken by laser scanning confocal microscope 510 Meta (Zeiss) and analyzed by Zeiss LSM Image Browser (ver. 4.2.0.121). […] Quantification results are shown as mean ± S.D. or S.E.M. of three independent experiments
Supplementary Fig. 2. Characterization of p62-ZZ ligands (a, c, e) 3-D modeling of p62 […]
μM, 6 h). (m) Quantification of l for co-localization (n=3, 50 cells). Scale bar, 10 µm. (n) […]

[5] = system: p62 and the lysosomal marker LAMP1; assay: ICC of LAMP1-p62 co-localization in HeLa cells; assay type: cell-based; details: 2.5 μM, 24 h
Protocol: as §4, with “experiments […]” for “experiments”
Supplementary Fig. 2. Characterization of p62-ZZ ligands (a, c, e) 3-D modeling of p62 ZZ ligands YOK-1304, YOK-2204 and YTK-105, respectively. (b, d, f) 2-D diagram for YOK-1304, YOK-2204 and YTK-105, respectively. (g,h) ICC of HeLa cells treated with the indicated compounds (2.5 μM, 24 h). Scale bar, 10 μm. (i) Quantification of h for co-localization (n=3, 50 cells). (j) ICC of HeLa cells treated with the indicated compounds (2.5 μM, 24 h). Scale bar, 10 μm. (k) Quantification of j for co-localization (n=3, 50 cells). (l) ICC of HeLa cells transiently expressing WIPI2-GFP and treated with the indicated compounds (2.5 μM, 6 h). (m) Quantification of l for co-localization (n=3, 50 cells). Scale bar, 10 µm. (n) […]

[6] = molecular target: T3, p62 (Homo sapiens, UniProt Q13501); assay: In vitro pulldown assay with biotinylated p62 ligands; assay type: binding; details: biotinylated ligand, HEK293T extracts
T3 construct: expressed in transfected cells; host or cells: HEK293T, transient; whole lysate used
T3 sequence (Q13501 whole entry): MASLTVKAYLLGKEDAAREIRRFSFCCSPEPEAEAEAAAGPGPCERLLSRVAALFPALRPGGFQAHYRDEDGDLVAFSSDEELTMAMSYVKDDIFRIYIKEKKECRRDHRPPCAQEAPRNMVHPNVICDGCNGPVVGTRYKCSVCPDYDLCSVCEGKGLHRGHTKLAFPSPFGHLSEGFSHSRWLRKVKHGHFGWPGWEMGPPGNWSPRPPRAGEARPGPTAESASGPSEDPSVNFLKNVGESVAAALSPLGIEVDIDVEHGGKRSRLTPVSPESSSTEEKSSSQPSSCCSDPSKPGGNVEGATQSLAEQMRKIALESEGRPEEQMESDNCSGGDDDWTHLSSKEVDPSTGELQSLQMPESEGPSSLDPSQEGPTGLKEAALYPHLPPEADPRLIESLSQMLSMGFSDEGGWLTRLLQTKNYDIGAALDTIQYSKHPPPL
Protocol: A set of synthetic 12-mer peptides corresponding to the N-terminal sequences of the V-BiP (V[19]-[…]-biotin) and V-RGS4 (V^2-[…]-biotin) was C-terminally biotin-conjugated. Alternatively, biotinylated versions of YOK-1304, YT-8-8, YTK-1105, YOK-2204, and PBA were synthesized. To cross-link the above peptides with resin beads, biotin-conjugated peptides, and small molecule were mixed with high-capacity streptavidin agarose resin (Thermo Fisher Scientific) at a ratio of 0.5 mg of peptide per 1 mL of settled resin and incubated on a rotator at 4 °C overnight. After washing five times with PBS, the peptide/small molecule-bead conjugates were diluted with PBS at a 1:1 ratio. To prepare protein extracts, cells were collected by centrifugation and lysed by freezing and thawing at least 10 times in hypotonic buffer [10 mM KCl, 1.5 mM MgCl2, and 10 mM HEPES (pH 7.9)] with a protease inhibitor mix (Sigma). After centrifugation at 15,000 rpm 4 °C for 15 min, proteins were quantified using a BCA protein assay kit (Thermo Fisher Scientific). Total protein (200 μg) diluted in 300 μL of binding buffer [0.05% Tween-20, 10% glycerol, 0.2 M KCl, and 20 mM HEPES (pH 7.9)] were mixed with 50 μL of peptide/small molecule-bead resin and incubated at 4 °C for 2 h on a rotator. The protein-bound beads were collected by centrifugation at 2400 × g for 3 min and washed five times with binding buffer. The beads were resuspended in 25 μL of SDS sample buffer, heated at 95 °C for 5 min, and subjected to SDS/PAGE and immunoblotting.

[7] = system: p62 and LC3 punctate structures; assay: ICC of p62 and LC3 puncta formation and co-localization in HeLa cells; assay type: cell-based; details: 2.5 μM, 24 h
Protocol: as §4

[8] = molecular target: T4, methionine aminopeptidase 2 (MetAP2) (Homo sapiens, UniProt P50579); assay: Western blot degradation of MetAP2; assay type: cell-based; details: 293T, 24 h
T4 construct: Targeted autophagic degradation of endogenous oncoproteins by AUTOTAC; endogenous in cells; host or cells: HEK293 / HEK293T, U87-MG
T4 sequence (P50579 whole entry): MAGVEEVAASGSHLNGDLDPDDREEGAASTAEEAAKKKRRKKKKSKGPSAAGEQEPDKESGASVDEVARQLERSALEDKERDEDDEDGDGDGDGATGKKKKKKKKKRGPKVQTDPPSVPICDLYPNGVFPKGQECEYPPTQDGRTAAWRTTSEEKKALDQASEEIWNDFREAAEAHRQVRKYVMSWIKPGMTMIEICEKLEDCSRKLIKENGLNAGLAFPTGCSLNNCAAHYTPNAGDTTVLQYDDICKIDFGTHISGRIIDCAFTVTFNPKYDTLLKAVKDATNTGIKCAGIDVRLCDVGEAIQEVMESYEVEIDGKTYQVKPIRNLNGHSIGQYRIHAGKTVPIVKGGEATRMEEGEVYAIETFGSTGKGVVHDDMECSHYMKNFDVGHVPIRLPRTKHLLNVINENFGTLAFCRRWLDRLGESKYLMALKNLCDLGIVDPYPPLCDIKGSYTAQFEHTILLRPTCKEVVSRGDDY
Protocol: as §1

[9] = system: autophagic turnover of p62 and LC3; assay: Autophagic flux assay in HeLa cells with or without HCQ; assay type: cell-based; details: 2.5 μM, 24 h, with or without HCQ 10 µM 24 h
Protocol: Fig. 1 Nt-Arg-mimicking p62-ZZ ligands activate p62-dependent selective macroautophagy. a A model illustrating the mode of action of autophagy-targeting ligands. b Chemical structures of autophagy-targeting ligands. c In vitro pulldown assay in HEK293T cells of the 12-mer V-BiP peptide or autophagy-targeting ligands. d In vitro p62 oligomerization assay in HEK293T cells incubated with the p62-ZZ ligands in (b). e ICC of HeLa cells treated with p62-ZZ ligands in (b) (2.5 μM, 24 h). Scale bar, 10 μm. f, g Quantification of (e) for puncta formation and co-localization, respectively (n = 3 biologically independent experiments each counting 50 cells). h A schematic/formulae for autophagy flux index. i Autophagic flux assay in HeLa cells treated with YOK-1304 or YTK-105 (2.5 μM, 24 h) in the presence or absence of HCQ (10 µM, 24 h). Data are presented as mean values ± SD where relevant. P-values (from a two-sided unpaired t test): ***P < 0.000956 (for p62 punctate formation), ***P < 0.000539 (for LC3 punctate formation), ***P < 0.000925 (for p62-LC3 co-localization). Source data are provided with this paper. TEXT PRINTED IN THE PICTURE: (i) YOK 1304: Normalized p62 A.F. index: 2.8; Normalized LC3 II/I A.F. index: 4.2 | (i) YTK 105: Normalized p62 A.F. index: 4.6; Normalized LC3 II/I A.F. index: 11.2
as §1

[10] = system: U87-MG glioblastoma cells; assay: Wound healing assay in U87-MG cells; assay type: cell-based; design: wound area, single experiment / wound area, Average: unit not given here; details: Fig. S4j
Protocol: To analyze cell migration in two dimensions, U-87 MG or ACHN cells were plated to a monolayer. Cells were scratched with a sterile 10 μl pipette tip and the debris was removed using medium. Cells were treated with compounds and incubated for different time to monitor cell behavior. Photographs were obtained using a microscope at different time point.

[11] = HeLa expressing WIPI2-GFP, 2.5 μM, 6 h

O=C(CCCc1ccccc1)NCCOCCOCCOCCOCCOCCOCCOCCNCc1ccc(OCc2ccccc2)c(OCc2ccccc2)c1 [PBA-1105b]
degradation of mutant desminL385P [1]: induced the degradation
degradation of wild-type desmin [2]: not wild-type desmin
degradation of tauP301L [3]: at a similar efficiency as the original PBA-1105

OCCNCCNCc1cccc(OCc2ccc(F)cc2)c1 [YT-8-8]
WIPI2-p62 colocalization, AVG of cells of 50 [4]: 43.3333
WIPI2-p62 colocalization, percentage AVG [4]: 86.6667%
WIPI2-p62 colocalization, cells of 50 cells counted ([4]; single experiments): 42 and 39 and 49
LAMP1-p62 colocalization, AVG of cells of 50 [5]: 33
LAMP1-p62 colocalization, percentage AVG [5]: 66%
LAMP1-p62 colocalization, cells of 50 cells counted ([5]; single experiments): 32 and 38 and 29
binding of p62 in pulldown [6]: bound

OCCNCc1cccc(OCc2ccccc2)c1 [YTK-105]
WIPI2-GFP-p62 colocalization, AVG of cells of 50 [4, 11]: 25
WIPI2-GFP-p62 colocalization, percentage AVG [4, 11]: 50%
WIPI2-GFP-p62 colocalization, cells of 50 cells counted ([4]; HeLa expressing WIPI2-GFP, 2.5 μM, 6 h, single experiments): 31 and 18 and 26
WIPI2-p62 colocalization, AVG of cells of 50 [4]: 40.6667
WIPI2-p62 colocalization, percentage AVG [4]: 81.3333%
WIPI2-p62 colocalization, cells of 50 cells counted ([4]; single experiments): 48 and 33 and 41
binding of p62 in pulldown [6]: bound
LC3 puncta formation, AVG of cells of 50 [7]: 42.3333
LC3 puncta formation, percentage AVG [7]: 84.6667%
p62-LC3 colocalization, AVG of cells of 50 [7]: 45
p62-LC3 colocalization, percentage AVG [7]: 90%
p62 puncta formation, AVG of cells of 50 [7]: 43.6667
p62 puncta formation, percentage AVG [7]: 87.3333%
LC3 puncta formation, cells of 50 cells counted ([7]; single experiments): 38 and 42 and 47
p62-LC3 colocalization, cells of 50 cells counted ([7]; single experiments): 46 and 43
p62 puncta formation, cells of 50 cells counted ([7]; single experiments): 43 and 41 and 47
MetAP2 normalized to control, AVG % ([8]; 2.5uM): 101.594%
MetAP2 normalized to control, AVG % ([8]; 10uM): 142.103%
Normalized LC3 II/I A.F. index [9]: 11.2
Normalized p62 A.F. index [9]: 4.6
wound area, single experiment ([10]; 0h): 1132236 and 1199923 and 1182736
wound area, Average % ([10]; 0h (reference = 100)): 100%
wound area, Average ([10]; 0h, con 1278325): 1171632
wound area, single experiment ([10]; 4h): 859025 and 791115 and 860952
wound area, Average ([10]; 4h, con 815372): 837031
wound area, Average % ([10]; 4h, relative to 0h, con 63.7844): 71.4415%
wound area, single experiment ([10]; 12h): 450234 and 520420 and 504520
wound area, Average ([10]; 12h, con 627015): 491725
wound area, Average % ([10]; 12h, relative to 0h, con 49.0497): 41.9692%
wound area, single experiment ([10]; 24h): 288632 and 435340 and 335340
wound area, Average ([10]; 24h, con 144265): 353104
wound area, Average % ([10]; 24h, relative to 0h, con 11.2855): 30.1378%
